In US6403791B1, “Heterocyclic compounds and their therapeutic use” (Darwin Discovery, Ltd., priority 2000, dated 2002):

Assay: Oral pharmacokinetics (Cmax) in guinea pigs
Conditions: guinea pig, in vivo, dosed orally at 3 mg/kg to guinea pigs

Cmax: 4370 ng/mL
Structure (SMILES): CCc1nc2c(OC(F)F)ccc(C(=O)Nc3c(C)noc3C)c2o1 [Example 1, 4-Difluoromethoxy-2-ethylbenzooxazole-7-carboxylic acid (3,5-dimethylisoxazole-4-yl)-amide]
